According to patent publication US11590139B2, “Substituted aminopurine compounds, compositions thereof, and methods of treatment therewith” (Signal Pharmaceuticals, LLC, priority 2014, dated 2023):

test system: Lox-IMVI melanoma cell line; assay: Lox-IMVI anti-proliferative assay (growth inhibition, Cell Titer-Glo); type: cell-based, human; conditions: Homo sapiens; IC50 activity level in the cell-based Lox-IMVI anti-proliferative assay; read-out: Activity
Outline: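 Lox-IMVI cells in RPMI+10% FBS exposed 72 h at 37 °C to 10-point, 3-fold dilutions (0.5 nM–10 μM; 0.2% DMSO final), in duplicate. Viability by Cell Titer-Glo luminescence, with a t0 cell-number reading; data as % of DMSO control; IC50 from a four-parameter logistic fit.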

| Structure (SMILES) | IC50 [µM] |
| --- | --- |
| CS(=O)(=O)N1CCC(Nc2ncc3nc(Nc4c(Cl)cc(F)cc4Cl)n([C@H]4CC[C@@H](C(N)=O)CC4)c3n2)CC1 [Example 297, (1s,4s)-4-(8-(2,6-dichloro-4-fluorophenylamino)-2-(1-(methylsulfonyl)piperidin-4-ylamino)-9H-purin-9-yl)cyclohexanecarboxamide] | > 1 |
| C[C@@H](CO)Nc1ncc2nc(Nc3c(F)cc(F)cc3F)n([C@H]3CC[C@@H](C(N)=O)CC3)c2n1 [Example 164, (1R,4s)-4-(2-((S)-1-hydroxypropan-2-ylamino)-8-(2,4,6-trifluorophenylamino)-9H-purin-9-yl)cyclohexanecarboxamide] | > 1 |
| N#Cc1cc(Cl)c(Nc2nc3cnc(NC4CCC(F)(F)CC4)nc3n2[C@H]2CC[C@@H](C(N)=O)CC2)c(Cl)c1 [Example 397, (1s,4s)-4-(8-(2,6-dichloro-4-cyanophenylamino)-2-(4,4-difluorocyclohexylamino)-9H-purin-9-yl)cyclohexanecarboxamide] | < 0.25 |

Next, values leading:

| IC50 [µM] | Structure (SMILES) |
| --- | --- |
| 0.5 to 1 | NC(=O)[C@H]1CC[C@@H](n2c(Nc3c(F)cc(F)cc3Cl)nc3cnc(NC4CC5(COC5)C4)nc32)CC1 [Example 175, (1s,4s)-4-(2-(2-oxaspiro[3.3]heptan-6-ylamino)-8-(2-chloro-4,6-difluorophenylamino)-9H-purin-9-yl)cyclohexanecarboxamide] |
| > 1 | Cc1cc(Cl)cc(F)c1Nc1nc2cnc(NC3CCOCC3)nc2n1[C@H]1CC[C@@H](C(N)=O)CC1 [Example 75, (1s,4s)-4-(8-(4-chloro-2-fluoro-6-methylphenylamino)-2-(tetrahydro-2H-pyran-4-ylamino)-9H-purin-9-yl)cyclohexanecarboxamide] |

same assay, conditions: Homo sapiens; Lox-IMVI anti-proliferative assay, IC50 activity level; read-out: Activity

| IC50 [µM] | Structure (SMILES) |
| --- | --- |
| > 1 | NC(=O)[C@H]1CC[C@@H](n2c(Nc3c(F)cc(Cl)cc3Cl)nc3cnc(NCC(F)(F)CO)nc32)CC1 [Example 451, (1s,4s)-4-(8-(2,4-dichloro-6-fluorophenylamino)-2-(2,2-difluoro-3-hydroxypropylamino)-9H-purin-9-yl)cyclohexanecarboxamide] |
| 0.5 to 1 | COC(=O)N1CCC[C@@H](Nc2ncc3nc(Nc4c(Cl)cc(Cl)cc4Cl)n([C@H]4CC[C@@H](C(N)=O)CC4)c3n2)C1 [Example 409, (R)-methyl 3-(9-((1s,4S)-4-carbamoylcyclohexyl)-8-(2,4,6-trichlorophenylamino)-9H-purin-2-ylamino)piperidine-1-carboxylate] |
| > 1 | C[C@]1(C(N)=O)CC[C@@H](n2c(Nc3c(F)cc(F)cc3F)nc3cnc(N[C@@H]4CCC[C@H](O)C4)nc32)CC1 [Example 563, (1S,4s)-4-(2-((1R,3S)-3-hydroxycyclohexylamino)-8-(2,4,6-trifluorophenylamino)-9H-purin-9-yl)-1-methylcyclohexanecarboxamide] |

same assay, conditions: Homo sapiens; Lox-IMVI melanoma cell line, anti-proliferative assay; read-out: Activity (IC50 activity level)

| Structure (SMILES) | IC50 [µM] |
| --- | --- |
| C[C@]1(C(N)=O)CC[C@@H](n2c(Nc3c(F)cc(F)cc3F)nc3cnc(N[C@H]4CC[C@H](O)C4)nc32)CC1 [Example 643, (1R,4s)-4-(2-((1S,3S)-3-hydroxycyclopentylamino)-8-(2,4,6-trifluorophenylamino)-9H-purin-9-yl)-1-methylcyclohexanecarboxamide] | 0.5 to 1 |
| C[C@]1(C(N)=O)CC[C@@H](n2c(Nc3c(F)cc(F)cc3Cl)nc3cnc(N[C@H]4CCC[C@@H](O)C4)nc32)CC1 [Example 626, (1R,4s)-4-(8-(2-chloro-4,6-difluorophenylamino)-2-((1S,3R)-3-hydroxycyclohexylamino)-9H-purin-9-yl)-1-methylcyclohexanecarboxamide] | 0.5 to 1 |
| C[C@]1(C(N)=O)CC[C@@H](n2c(Nc3c(Cl)cc(Cl)cc3Cl)nc3cnc(N[C@H]4CCC[C@H](O)C4)nc32)CC1 [Example 611, (1R,4s)-4-(2-((1S,3S)-3-hydroxycyclohexylamino)-8-(2,4,6-trichlorophenylamino)-9H-purin-9-yl)-1-methylcyclohexanecarboxamide] | < 0.25 |
| N#Cc1cc(Cl)c(Nc2nc3cnc(NC4CCC(N5C(=O)CCC5=O)CC4)nc3n2[C@H]2CC[C@@H](C(N)=O)CC2)c(Cl)c1 (some centres unmarked) [Example 668, (1s,4s)-4-(8-(2,6-dichloro-4-cyanophenylamino)-2-(4-(2,5-dioxopyrrolidin-1-yl)cyclohexylamino)-9H-purin-9-yl)cyclohexanecarboxamide] | > 1 |

Second part, the molecule after the results:

| IC50 [µM] | Structure (SMILES) |
| --- | --- |
| 0.5 to 1 | N#Cc1cc(Cl)c(Nc2nc3cnc(N[C@H]4CCC[C@@H](O)C4)nc3n2[C@H]2CC[C@@H](C(N)=O)CC2)c(Cl)c1 [Example 686, (1R,4s)-4-(8-(2,6-dichloro-4-cyanophenylamino)-2-((1S,3R)-3-hydroxycyclohexylamino)-9H-purin-9-yl)cyclohexanecarboxamide] |
| > 1 | N#Cc1cc(F)c(Nc2nc3cnc(N[C@H]4CCC[C@@H](O)C4)nc3n2[C@H]2CC[C@@H](C(N)=O)CC2)c(Cl)c1 [Example 687, (1R,4s)-4-(8-(2-chloro-4-cyano-6-fluorophenylamino)-2-((1S,3R)-3-hydroxycyclohexylamino)-9H-purin-9-yl)cyclohexanecarboxamide] |
| < 0.25 | NC(=O)[C@H]1CC[C@@H](n2c(Nc3c(F)cc(Cl)cc3Cl)nc3cnc(N[C@@H]4CCOC[C@H]4F)nc32)CC1 [Example 728, (1S,4s)-4-(8-(2,4-dichloro-6-fluorophenylamino)-2-((3S,4R)-3-fluorotetrahydro-2H-pyran-4-ylamino)-9H-purin-9-yl)cyclohexanecarboxamide] |
| < 0.25 | N#Cc1cc(F)c(Nc2nc3cnc(N[C@@H]4CCOC[C@H]4F)nc3n2[C@H]2CC[C@@H](C(N)=O)CC2)c(Cl)c1 [Example 629, (1S,4s)-4-(8-(2-chloro-4-cyano-6-fluorophenylamino)-2-((3S,4R)-3-fluorotetrahydro-2H-pyran-4-ylamino)-9H-purin-9-yl)cyclohexanecarboxamide] |
| < 0.25 | C[C@@H]1COCC[C@H]1Nc1ncc2nc(Nc3c(F)cc(Cl)cc3Cl)n([C@H]3CC[C@@](C)(C(N)=O)CC3)c2n1 [Example 717, (1S,4s)-4-(8-(2,4-dichloro-6-fluorophenylamino)-2-((3S,4R)-3-methyltetrahydro-2H-pyran-4-ylamino)-9H-purin-9-yl)-1-methylcyclohexanecarboxamide] |
